The nature of data set [1]: DRUGMATRIX: Calcium Channel Type L, Phenylalkylamine radioligand binding (ligand: [3H] (-)-Desmethoxyverapamil (D-888)). The format is cell membranes, Rattus norvegicus, Wistar, Brain, Membrane. The note with it: Not Active = under 50% inhibition at 10 µM.
Data set [2] has as its target D(3) dopamine receptor (Homo sapiens, UniProt P35462). Put plainly: DRUGMATRIX: Dopamine D3 radioligand binding (ligand: [3H] Spiperone). It is filed as cell membranes, CHO, Membrane.
The nature of data set [3]: DRUGMATRIX: GABAA, Muscimol, Central radioligand binding (ligand: [3H] Muscimol). The format is cell membranes, Rattus norvegicus, Wistar, Brain, Membrane. Particulars: Not Active = under 50% inhibition at 10 µM.
Data set [4] has as its target T1, Caspase-1 (Homo sapiens, UniProt P29466).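 Further: Caspase-1 enzyme inhibition assay with a peptide substrate; in other assays of this panel Not Active means under 50% inhibition at 10 µM.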
T1 sequence (P29466 whole entry): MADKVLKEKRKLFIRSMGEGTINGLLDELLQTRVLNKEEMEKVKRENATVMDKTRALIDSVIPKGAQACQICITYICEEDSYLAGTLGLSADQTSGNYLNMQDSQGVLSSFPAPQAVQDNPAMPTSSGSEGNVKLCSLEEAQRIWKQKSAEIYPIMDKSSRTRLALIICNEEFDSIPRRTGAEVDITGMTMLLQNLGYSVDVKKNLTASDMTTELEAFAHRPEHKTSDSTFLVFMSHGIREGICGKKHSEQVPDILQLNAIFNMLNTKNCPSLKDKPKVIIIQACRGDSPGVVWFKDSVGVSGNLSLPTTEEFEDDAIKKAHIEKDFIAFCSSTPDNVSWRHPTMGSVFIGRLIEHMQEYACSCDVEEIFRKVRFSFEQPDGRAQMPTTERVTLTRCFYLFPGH
More on the design: species or system Escherichia coli.

For data set [5], the target named is Tyrosine-protein kinase Lck (Homo sapiens, UniProt P06239). The data set can be described thus: DRUGMATRIX: Protein Tyrosine Kinase, LCK enzyme inhibition (substrate: Poly(Glu:Tyr)). It is filed as cell-based, Insect cells. The note with it: insect cells; Not Active = under 50% inhibition at 10 µM.
Sequence of Tyrosine-protein kinase Lck (P06239 whole entry): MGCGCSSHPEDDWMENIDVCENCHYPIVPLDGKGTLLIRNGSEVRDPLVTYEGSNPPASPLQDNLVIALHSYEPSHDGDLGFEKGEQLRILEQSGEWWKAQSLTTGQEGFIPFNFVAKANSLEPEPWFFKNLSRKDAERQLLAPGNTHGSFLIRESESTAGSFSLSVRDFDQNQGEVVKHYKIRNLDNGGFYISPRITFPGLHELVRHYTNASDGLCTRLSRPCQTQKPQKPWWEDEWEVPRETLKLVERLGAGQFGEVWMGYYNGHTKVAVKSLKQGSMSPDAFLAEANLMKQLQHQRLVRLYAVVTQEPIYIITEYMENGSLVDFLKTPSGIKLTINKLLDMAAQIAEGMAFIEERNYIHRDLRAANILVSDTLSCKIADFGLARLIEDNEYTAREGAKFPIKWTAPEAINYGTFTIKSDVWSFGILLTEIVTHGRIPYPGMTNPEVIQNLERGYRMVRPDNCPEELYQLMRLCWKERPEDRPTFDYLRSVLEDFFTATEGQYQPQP
Data set [6] addresses Cytochrome P450 2C19 (Homo sapiens, UniProt P33261). The note with it: bti-tn-5b1-4.
For data set [7], the target named is T2, Glucocorticoid receptor (Homo sapiens, UniProt P04150). Further: in other assays of this panel Not Active means under 50% inhibition at 10 µM.
T2 sequence (P04150 whole entry): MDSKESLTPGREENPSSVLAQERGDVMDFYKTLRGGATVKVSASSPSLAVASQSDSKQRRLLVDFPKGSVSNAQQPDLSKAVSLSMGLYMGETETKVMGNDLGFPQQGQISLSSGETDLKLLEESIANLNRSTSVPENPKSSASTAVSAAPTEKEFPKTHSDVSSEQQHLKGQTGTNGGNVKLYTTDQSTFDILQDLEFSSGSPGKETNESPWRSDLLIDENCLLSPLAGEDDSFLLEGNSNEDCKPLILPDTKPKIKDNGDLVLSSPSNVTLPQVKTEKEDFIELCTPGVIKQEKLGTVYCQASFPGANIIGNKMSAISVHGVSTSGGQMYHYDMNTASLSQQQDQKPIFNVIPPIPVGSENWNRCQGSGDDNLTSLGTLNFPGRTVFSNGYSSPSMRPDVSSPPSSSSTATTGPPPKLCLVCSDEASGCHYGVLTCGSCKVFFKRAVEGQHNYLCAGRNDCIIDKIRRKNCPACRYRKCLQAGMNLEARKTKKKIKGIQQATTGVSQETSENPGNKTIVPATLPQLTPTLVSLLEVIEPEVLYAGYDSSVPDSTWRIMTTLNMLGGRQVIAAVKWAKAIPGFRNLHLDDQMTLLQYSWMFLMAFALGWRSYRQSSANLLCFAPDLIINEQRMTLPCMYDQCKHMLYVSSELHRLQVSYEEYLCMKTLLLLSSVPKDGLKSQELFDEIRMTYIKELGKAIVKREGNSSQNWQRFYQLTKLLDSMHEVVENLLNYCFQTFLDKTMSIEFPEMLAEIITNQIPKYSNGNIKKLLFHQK
Particulars: hela s3.

This passage reports IC50 and Ki results from ChEMBL document CHEMBL1909046, “DrugMatrix in vitro pharmacology data”.

The structures appear in SMILES notation.

Sequence of Cytochrome P450 2C19 (P33261 whole entry): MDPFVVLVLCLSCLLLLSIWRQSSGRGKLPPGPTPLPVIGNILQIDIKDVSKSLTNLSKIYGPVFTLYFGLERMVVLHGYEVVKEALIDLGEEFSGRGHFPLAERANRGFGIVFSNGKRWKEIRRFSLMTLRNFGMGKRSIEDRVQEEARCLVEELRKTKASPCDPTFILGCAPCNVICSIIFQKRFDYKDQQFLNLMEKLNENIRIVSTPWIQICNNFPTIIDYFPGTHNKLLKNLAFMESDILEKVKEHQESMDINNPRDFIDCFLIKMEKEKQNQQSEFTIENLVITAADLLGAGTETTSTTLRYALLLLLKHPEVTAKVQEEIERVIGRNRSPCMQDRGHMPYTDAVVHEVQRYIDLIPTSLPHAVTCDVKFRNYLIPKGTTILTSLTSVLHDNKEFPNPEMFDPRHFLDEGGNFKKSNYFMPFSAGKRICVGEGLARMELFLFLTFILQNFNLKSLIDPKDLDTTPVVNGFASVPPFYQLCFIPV
Sequence of D(3) dopamine receptor (P35462 whole entry): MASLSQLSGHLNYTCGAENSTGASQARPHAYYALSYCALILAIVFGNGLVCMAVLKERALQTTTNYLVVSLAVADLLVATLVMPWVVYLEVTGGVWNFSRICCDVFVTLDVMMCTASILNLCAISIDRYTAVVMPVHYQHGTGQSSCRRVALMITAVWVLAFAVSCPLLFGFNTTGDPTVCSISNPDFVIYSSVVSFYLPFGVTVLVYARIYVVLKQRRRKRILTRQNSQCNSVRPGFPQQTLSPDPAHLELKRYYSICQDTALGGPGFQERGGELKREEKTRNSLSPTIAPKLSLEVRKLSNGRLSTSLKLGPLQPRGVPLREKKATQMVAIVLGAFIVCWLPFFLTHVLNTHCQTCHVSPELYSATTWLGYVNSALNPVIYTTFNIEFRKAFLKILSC

Consider `CC(C)NCC(O)c1ccc(O)c(O)c1` (stereo unspecified) [ISOPROTERENOL], for which the IC50 entry in data set [1], in data set [2] (cho), in data set [3], in data set [4], in data set [5] and in data set [6] was “Not Active” in each case. The half-maximal inhibitory concentration (IC50) result in data set [7] was “Not Active”. The Ki result in data set [1], in data set [3] and in data set [6] was “Not Active” in each case.
`CNC1(c2ccccc2Cl)CCCCC1=O` (stereo unspecified) [KETAMINE]: the half-inhibitory concentration (IC50) entry in data set [1], in data set [2] (cho), in data set [3], in data set [4], in data set [5] and in data set [6] was “Not Active” throughout. Further, in data set [7], the IC50 result is “Not Active”. Moreover, the Ki result in data set [1], in data set [3] and in data set [6] was “Not Active” throughout.
For `N#Cc1ccc(C(c2ccc(C#N)cc2)n2cncn2)cc1` [LETROZOLE], the 50% inhibitory concentration (IC50) result in data set [1], in data set [2] (cho), in data set [3], in data set [4], in data set [5] and in data set [6] was “Not Active” in each case. In addition, in data set [7], the concentration for half-maximal inhibition (IC50) result was “Not Active”. Also, the inhibition constant Ki result in data set [1], in data set [3] and in data set [6] was “Not Active” throughout.
Take `O=C1Nc2ccc(Cl)cc2C(c2ccccc2Cl)=NC1O` (stereo unspecified) [LORAZEPAM]: the IC50 entry in data set [1], in data set [2] (cho), in data set [3], in data set [4], in data set [5] and in data set [6] was “Not Active” throughout. Also, in data set [7], the IC50 entry was “Not Active”. For the same compound, the inhibitory constant (Ki) entry in data set [1], in data set [3] and in data set [6] was “Not Active” throughout.
Take `CO[C@@H]1[C@@H](OC)[C@H](C)[C@@](O)(CC(=O)O)O[C@H]1[C@H](C)[C@H]1O[C@@]2(CC[C@@](C)([C@H]3CC[C@@](C)([C@@H]4O[C@@H]([C@H]5O[C@](C)(O)[C@H](C)C[C@@H]5C)C[C@@H]4O[C@@H]4C[C@H](OC)[C@@H](OC)[C@H](C)O4)O3)O2)C[C@H](O)[C@H]1C` [MADURAMICIN ACID]: the half-maximal inhibitory concentration (IC50) result is “Not Active” in data set [1]; 27 nM in data set [2] (read-out: IC50); “Not Active” in data set [3]; “Not Active” in data set [4]; “Not Active” in data set [5]; “Not Active” in data set [6]. In addition, the IC50 result in data set [7] is recorded as “Not Active”. The Ki entry is “Not Active” in data set [1], 9.34 nM in data set [2] (read-out: Ki), “Not Active” in data set [3] and “Not Active” in data set [6].
As to `COc1c2occc2cc2ccc(=O)oc12` [METHOXSALEN], the IC50 entry in data set [1], in data set [2] (cho), in data set [3], in data set [4], in data set [5] and in data set [6] was “Not Active” in each case. In addition, in data set [7], the half-inhibitory concentration (IC50) entry is given as “Not Active”. Further, the Ki result in data set [1], in data set [3] and in data set [6] was “Not Active” in each case.
As to `Nc1cc(N2CCCCC2)nc(N)[n+]1[O-]` [MINOXIDIL], the IC50 entry in data set [1], in data set [2] (cho), in data set [3], in data set [4], in data set [5] and in data set [6] was “Not Active” each time. In addition, the half-maximal inhibitory concentration (IC50) result in data set [7] is “Not Active”. The Ki entry in data set [1], in data set [3] and in data set [6] was “Not Active” in each case.
As for `CO[C@H]1/C=C/O[C@@]2(C)Oc3c(C)c(O)c4c(O)c(c(/C=N/N5CCN(C6CCCC6)CC5)c(O)c4c3C2=O)NC(=O)/C(C)=C\C=C\[C@H](C)[C@H](O)[C@@H](C)[C@@H](O)[C@@H](C)[C@H](OC(C)=O)[C@@H]1C` [RIFAPENTINE], the IC50 result in data set [1], in data set [2] (cho), in data set [3], in data set [4], in data set [5] and in data set [6] was “Not Active” in each case. Besides, in data set [7], the concentration for half-maximal inhibition (IC50) result is recorded as “Not Active”. Also, the inhibition constant Ki entry in data set [1], in data set [3] and in data set [6] was “Not Active” throughout.
`CCCCOc1cc(CC2CNC(=O)N2)ccc1OC` (stereo unspecified) [RO-201724]: the half-inhibitory concentration (IC50) entry in data set [1], in data set [2] (cho), in data set [3], in data set [4], in data set [5] and in data set [6] was “Not Active” throughout. Besides, the IC50 entry in data set [7] is “Not Active”. For the same compound, the inhibition constant (Ki) result in data set [1], in data set [3] and in data set [6] was “Not Active” in each case.
Regarding `O=C(O)c1cn(-c2ccc(F)cc2)c2cc(N3CCNCC3)c(F)cc2c1=O` [SARAFLOXACIN], the concentration for half-maximal inhibition (IC50) result in data set [1], in data set [2] (cho), in data set [3], in data set [4], in data set [5] and in data set [6] was “Not Active” throughout. Moreover, the half-inhibitory concentration (IC50) entry in data set [7] is listed as “Not Active”. Also, the inhibition constant (Ki) result in data set [1], in data set [3] and in data set [6] was “Not Active” in each case.
Turning to `CC(C)NCC(O)c1ccc(NS(C)(=O)=O)cc1` (stereo unspecified) [SOTALOL], the half-maximal inhibitory concentration (IC50) result in data set [1], in data set [2] (cho), in data set [3], in data set [4], in data set [5] and in data set [6] was “Not Active” throughout. For the same compound, the 50% inhibitory concentration (IC50) entry in data set [7] is on record as “Not Active”. For the same compound, the Ki entry in data set [1], in data set [3] and in data set [6] was “Not Active” throughout.
In the case of `O=C1C(CC[S+]([O-])c2ccccc2)C(=O)N(c2ccccc2)N1c1ccccc1` (stereo unspecified) [SULFINPYRAZONE], the IC50 result in data set [1], in data set [2] (cho), in data set [3], in data set [4], in data set [5] and in data set [6] was “Not Active” in each case. Besides, the half-inhibitory concentration (IC50) entry in data set [7] was “Not Active”. Further, the inhibitory constant (Ki) result in data set [1], in data set [3] and in data set [6] was “Not Active” throughout.
Take `NC(=O)N1C(=O)/C(=C(\O)c2cccs2)c2cc(Cl)ccc21` [TENIDAP]: the concentration for half-maximal inhibition (IC50) result in data set [1], in data set [2] (cho), in data set [3], in data set [4], in data set [5] and in data set [6] was “Not Active” throughout. In addition, the 50% inhibitory concentration (IC50) entry in data set [7] is listed as “Not Active”. The Ki result in data set [1], in data set [3] and in data set [6] was “Not Active” each time.
For `COc1cc2nc(N3CCN(C(=O)C4CCCO4)CC3)nc(N)c2cc1OC` (stereo unspecified) [TERAZOSIN], the IC50 result in data set [1], in data set [2] (cho), in data set [3], in data set [4], in data set [5] and in data set [6] was “Not Active” each time. In addition, in data set [7], the IC50 entry is reported as “Not Active”. Further, the Ki entry in data set [1], in data set [3] and in data set [6] was “Not Active” in each case.
As for `CN(C/C=C/C#CC(C)(C)C)Cc1cccc2ccccc12` [TERBINAFINE], the IC50 entry in data set [1], in data set [2] (cho), in data set [3], in data set [4], in data set [5] and in data set [6] was “Not Active” in each case. Moreover, in data set [7], the IC50 entry is given as “Not Active”. In addition, the inhibitory constant (Ki) entry in data set [1], in data set [3] and in data set [6] was “Not Active” each time.
Regarding `CS(=O)(=O)c1ccc([C@@H](O)[C@@H](CO)NC(=O)C(Cl)Cl)cc1` [THIAMPHENICOL], the 50% inhibitory concentration (IC50) entry in data set [1], in data set [2] (cho), in data set [3], in data set [4], in data set [5] and in data set [6] was “Not Active” throughout. Besides, the IC50 result in data set [7] is “Not Active”. Also, the Ki result in data set [1], in data set [3] and in data set [6] was “Not Active” in each case.
